Source: patent publication US20060276455A1, “Use of a mast cell activation or degranulation blocking agent in the manufacture of a medicament for the treatment of cerebral ischemia” (priority 2003, published 2006)

What was measured:
[1] = tested on: cerebral hemorrhage in rats; assay: Surgically induced cerebral hemorrhage (autologous blood injection), outcome at 24 h; conditions: i.c.v.
Experimental: In anesthesized rats, 2 craniotomies were performed for the introduction of drug infusion and blood. We injected 50 microliters of autologous arterial blood via stereotactically a Hamilton needle tip placed to the caudate putamen (6 mm from skull surface), a common location of spontaneous cerebral hemorrhages.
Animals were allowed to recover and 24 h later their level of neurological deterioration was rated on a 6-point scale: 5=dead, 4=stuporous, moribund, 3=hemiparetic with balance disturbance, 2=hemiparesis, 1=paresis of contralateral paw, 0=normal. The mortality was also recorded by 24 hours.

[2] = tested on: focal cerebral ischemia in rats (middle cerebral artery occlusion); assay: Postischemic neutrophil response (Leder staining) after transient MCA occlusion; format: in vivo, rat; conditions: i.c.v. pretreatment, 4 h after MCAO, vs control
Text: We used the suture MCA occlusion model with reperfusion, described elsewhere. Briefly, we exposed the right common carotid artery (CCA) and the right external carotid artery (ECA) through a ventral midline neck incision. We ligated the proximal CCA and the origin of the ECA. We inserted a 4-0 nylon mono-filament suture (Ethilon Nylon Suture, ETHICON) with its tip rounded by heating near a flame and then coated with silicone into the right CCA via an arteriectomy. Reperfusion was accomplished by withdrawing the suture occluder 60 minutes after MCAO, whereafter the animals were allowed to recover. Four hours after MCAO, the rats were killed by injecting intraperitoneally 120 mg of pentobarbital natrium (Mebumat). Cardiac perfusion was performed with the heart still beating but respiration ceased by infusing 250 mL of ice cold 0.9% saline at an inflow pressure of 100 mmHg into the arterial vascular system. […] The densities of intravascular and emigrated neutrophils were counted without prior knowledge of animal grouping in systematically placed target areas, the temporoparietal infarction core, the parasagittal infarct penumbra and the deep thalamic and basal ganglia. In each area, 60 to 100 microscopic fields of 0.1 mm^2 were counted and averaged for each location. […]

## O=C(O)c1cc(=O)c2c(OCC(O)COc3cccc4oc(C(=O)O)cc(=O)c34)cccc2o1 [disodium cromoglycate]
[1]; 24 h, saline-treated 3.2, p<0.01
  six-point neurological score (0=normal, 5=dead), average: 0.89
[1]; saline-treated group 40%
  mortality by 24 hours: 0%
[2]
  decrease of density of neutrophils in the infarcted hemisphere: 37%
